What was measured:
[1] = system: COLO 205; assay: SRB anticancer assay, colon; type: cell-based, human; details: Homo sapiens, COLO 205, 48 h
[2] = system: MDA-MB-435; assay: SRB anticancer assay, melanoma; type: cell-based, human; design: Log10GI50: unit not given here; details: for GI50: Homo sapiens, MDA-MB-435, 48 h; for Log10GI50: MDA-MB-435, present compounds
[3] = system: RPMI-8226; assay: SRB anticancer assay, leukemia; type: cell-based; details: Homo sapiens, RPMI-8226, 48 h
[4] = system: MOLT-4; assay: SRB anticancer assay, leukemia; type: cell-based, human; design: Log10GI50: unit not given here; details: for GI50: Homo sapiens, MOLT-4, 48 h; for Log10GI50: MOLT, present compounds
[5] = system: HOP-92; assay: SRB anticancer assay, non-small lung; type: cell-based, human; design: Log10GI50: unit not given here; details: for Log10GI50: HOP-92, present compounds; for GI50: Homo sapiens, HOP-92, 48 h
[6] = system: HOP-62; assay: SRB anticancer assay, non-small lung; type: cell-based, human; details: for Log10GI50: HOP-62, present compounds; for GI50: Homo sapiens, HOP-62, 48 h
[7] = system: HCC-2998; assay: SRB anticancer assay, colon; type: cell-based, human; details: Homo sapiens; HCC-2998, 48 h
[8] = system: MDA-MB-468; assay: SRB anticancer assay, breast; type: cell-based, human; design: unit not given here; details: present compounds
[9] = system: SW-620; assay: SRB anticancer assay, colon; type: cell-based, human; design: Log10GI50: unit not given here; details: for GI50: Homo sapiens, SW-620, 48 h; for Log10GI50: SW-620, present compounds
[10] = system: M14; assay: SRB anticancer assay, melanoma; type: cell-based, human; design: Log10GI50: unit not given here; details: for GI50: Homo sapiens, M14, 48 h; for Log10GI50: M14, present compounds
[11] = system: HCT-15; assay: SRB anticancer assay, colon; type: cell-based, human; details: Homo sapiens, HCT-15, 48 h
[12] = system: CAKI-1; assay: SRB anticancer assay, renal; type: cell-based, human; design: Log10GI50: unit not given here; details: for GI50: Homo sapiens, CAKI-1, 48 h; for Log10GI50: CAKI-1, present compounds
[13] = system: CCRF-CEM; assay: SRB anticancer assay, leukemia; type: cell-based, human; design: Log10GI50: unit not given here; details: for GI50: Homo sapiens, 48 h; for Log10GI50: present compounds
[14] = system: sixty human cancer cell lines; assay: SRB anticancer assay, all cell lines; type: cell-based; details: all the cell lines; exposure at least 48 h
[15] = system: p21; assay: Western blot, apoptosis proteins in MCF-7 cells; type: cell-based; details: 2 μM, 24h
Description: (§1) FIG. 3 represents effect of compound 7d and 7h on p21 and caspase-9. MCF-7 cells were treated with 2 μM concentration of compounds 7d and 7h for 24h. The cell lysates were collected and probed with anti-bodies against p21 and caspase-9. beta-actin was used as loading control. Con: Control (untreated).
(§2) Activation of tumor suppressor gene p21 was the important regulator of apoptotic pathway caused by various stimuli. In many instances the apoptotic cell death is mediated by caspases, thus the possible involvement of p21 and caspase protein and its role in apoptosis has been investigated. MCF-7 cells were treated with 7d, 7h (the effective compounds of cell cycle arrest) 21a, 21d and CA-4 at 2 μM concentration.

[16] = system: caspase-9; assay: Western blot, apoptosis proteins in MCF-7 cells; type: cell-based; details: 2 μM, 24h
Description: as §1, §2

[17] = system: microtubule network of MCF-7 cells; assay: Effect on microtubule network; type: cell-based; details: 2 μM
Description: FIG. 2 represents effect of compound 7d, the effective compound on the microtubule network of MCF-7 cells untreated cells (Con), nocodazole (Noc) and 7d at 2 μM concentration. Microtubules and unassembled tubulin are shown in green and DNA was stained with nuclear dye DAPI (4,6-diamidino-2-phenylindole) is shown in blue colour.
Inhibition of tubulin is associated with G2/M cell cycle arrest by interrupting chromosome segregation and affecting mitotic spindle formation. […] It was considered of interest to understand the mechanism of anti-cancer activity of compound 7d with regard to interaction with microtubule system. MCF-7 breast cancer cells were treated with Nocodazole (Noc), 7d compounds at 2 μM concentration.

Compound: COc1cc(-c2cncn2-c2ccc(-c3nc4ccc(F)cc4s3)cc2)ccc1F [Compound 4c, 6-Fluoro-2-(4-(5-(4-fluoro-3-methoxyphenyl)-1H-imidazol-1-yl)phenyl)benzo[d]thiazole]
- GI50 [1]: 56.8 µM
- GI50 [2]: 17.1 µM
- Log10GI50 [2]: −4.77
- GI50 [3]: 4.11 µM
- GI50 [4]: 3.41 µM
- Log10GI50 [4]: −5.47
- Log10GI50 [5]: −5.26
- GI50 [5]: 5.47 µM
- Log10GI50 [6]: −4.39 log10 M
- GI50 [6]: 40.7 µM
- GI50 [7]: > 100 µM
- Log10GI50 [8]: −4.96
- GI50 [9]: 7.81 µM
- Log10GI50 [9]: −5.11
- GI50 [10]: 33.4 µM
- Log10GI50 [10]: −4.48
- GI50 [11]: 82.3 µM
- GI50 [12]: > 100 µM
- GI50 [13]: 6.92 µM
- Log10GI50 [13]: −5.16

Compound: COc1cc(OC)cc(-c2cncn2-c2ccc(-c3nc4cc(OC)cc(OC)c4s3)cc2)c1 [Compound 6d, 2-(4-(5-(3,5-Dimethoxyphenyl)-1H-imidazol-1-yl)phenyl)-5,7-dimethoxybenzo[d]thiazole]
- mean graph midpoint values (MG_MID) of log10LC50, range [14]: −4.00
- GI50 [2]: 1.53 µM
- GI50 [6]: 6.65 µM
- GI50 [7]: > 100 µM
- GI50 [12]: 2.13 µM

Compound: COc1cc(OC)c2sc(-c3ccc(-n4cncc4-c4ccc(OC)c(OC)c4)cc3)nc2c1 [Compound 6e, 2-(4-(5-(3,4-Dimethoxyphenyl)-1H-imidazol-1-yl)phenyl)-5,7-dimethoxybenzo[d]thiazole]
- mean graph midpoint values (MG_MID) of log10LC50, range [14]: −4.00
- GI50 [3]: > 100 µM
- GI50 [6]: 35.5 µM
- GI50 [7]: > 100 µM
- GI50 [9]: > 100 µM
- GI50 [10]: > 100 µM
- GI50 [11]: > 100 µM
- GI50 [13]: > 100 µM

Compound: COc1cc(OC)c2sc(-c3ccc(-n4cncc4-c4cc(OC)c(OC)c(OC)c4)cc3)nc2c1 [Compound 6f, 5,7-Dimethoxy-2-(4-(5-(3,4,5-trimethoxyphenyl)-1H-imidazol-1-yl)phenyl)benzo[d]thiazole]
- GI50 [1]: 4.51 µM
- mean graph midpoint values (MG_MID) of log10LC50, range [14]: −4.00
- mean graph midpoint values (MG_MID) of log10TGI, range [14]: −4.00
- GI50 [2]: 3.41 µM
- GI50 [3]: 5.39 µM
- GI50 [4]: 4.24 µM
- GI50 [6]: 75.9 µM
- GI50 [7]: > 100 µM
- GI50 [9]: 5.96 µM
- GI50 [10]: 7.91 µM
- GI50 [11]: 5.48 µM
- GI50 [13]: 3.95 µM

Compound: COc1cc(OC)cc(-c2cncn2-c2ccc(-c3nc4cc(OC)c(OC)c(OC)c4s3)cc2)c1 [Compound 7d, 2-(4-(5-(3,5-Dimethoxyphenyl)-1H-imidazol-1-yl)phenyl)-5,6,7-trimethoxybenzo[d]thiazole]
- GI50 [1]: 3.85 µM
- GI50 [2]: 6.07 µM
- Log10GI50 [2]: −5.22
- GI50 [3]: 2.9 µM
- p21 protein (Western blot) [15]: increase
- caspase-9 protein (Western blot) [16]: increase
- GI50 [4]: 4.11 µM
- Log10GI50 [4]: −5.39
- Log10GI50 [5]: >−4.0
- GI50 [5]: > 100 µM
- Log10GI50 [6]: −4.58 log10 M
- GI50 [6]: 26.4 µM
- microtubulin organization [17]: disrupted microtubulin organization
- GI50 [7]: > 100 µM
- Log10GI50 [8]: −4.97
- GI50 [9]: 13.7 µM
- Log10GI50 [9]: −4.86
- GI50 [11]: 5.72 µM
- Log10GI50 [12]: −5.42
- GI50 [12]: 3.79 µM

Compound: COc1cc2nc(-c3ccc(-n4cncc4-c4ccc(N)cc4)cc3)sc2c(OC)c1OC [Compound 7h, 4-(1-(4-(5,6,7-Trimethoxybenzo[d]thiazol-2-yl)phenyl)-1H-imidazol-5-yl)benzenamine]
- p21 protein (Western blot) [15]: increase
- caspase-9 protein (Western blot) [16]: increase
- Log10GI50 [5]: −6.35
- GI50 [5]: 0.446 µM
- Log10GI50 [8]: −5.74
- GI50 [10]: 2.1 µM
- Log10GI50 [10]: −5.68
- Log10GI50 [12]: −5.85
- GI50 [12]: 1.41 µM

Compound: COc1ccc(-c2cncn2-c2ccc(-c3nc4cc(OC)c(OC)c(OC)c4s3)cc2)cc1N [Compound 7j, 2-Methoxy-5-(1-(4-(5,6,7-trimethoxybenzo[d]thiazol-2-yl)phenyl)-1H-imidazol-5-yl)benzeneamine]
- GI50 [1]: 2.94 µM
- mean graph midpoint values (MG_MID) of log10LC50, range [14]: −4.00
- GI50 [2]: 3.13 µM
- Log10GI50 [2]: −5.50
- GI50 [4]: 4 µM
- Log10GI50 [4]: −5.40
- Log10GI50 [8]: −5.07
- GI50 [9]: 6.21 µM
- Log10GI50 [9]: −5.21
- GI50 [10]: 5.91 µM
- Log10GI50 [10]: −5.23
- GI50 [11]: 4.02 µM
- Log10GI50 [12]: −5.32
- GI50 [12]: 4.82 µM
- GI50 [13]: 3.41 µM
- Log10GI50 [13]: −5.47
